Assay results taken from patent US20200207734A1, “HETEROCYCLIC COMPOUND AND USE THEREOF” (Takeda Pharmaceutical Company Limited, priority 2017, published 2020).

Target: T1, human orexin type 2 receptor (Homo sapiens, UniProt O43614)
T1 construct: human orexin type 2 receptor cDNA was inserted into pcDNA3.1(+) plasmid vector (Invitrogen); expressed in transfected cells
T1 sequence (O43614 1-444): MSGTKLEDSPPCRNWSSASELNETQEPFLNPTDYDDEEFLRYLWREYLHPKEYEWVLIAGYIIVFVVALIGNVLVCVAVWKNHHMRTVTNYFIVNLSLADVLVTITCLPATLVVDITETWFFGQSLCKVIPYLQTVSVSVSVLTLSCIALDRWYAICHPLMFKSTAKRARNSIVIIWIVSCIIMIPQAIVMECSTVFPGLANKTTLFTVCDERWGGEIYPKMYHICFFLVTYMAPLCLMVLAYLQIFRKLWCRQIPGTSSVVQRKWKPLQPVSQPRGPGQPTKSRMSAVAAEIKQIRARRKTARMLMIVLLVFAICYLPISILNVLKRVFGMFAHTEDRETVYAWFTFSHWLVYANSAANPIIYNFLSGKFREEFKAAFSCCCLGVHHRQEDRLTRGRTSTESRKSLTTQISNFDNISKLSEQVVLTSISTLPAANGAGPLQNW
Test: Measurement of orexin type 2 receptor agonist activity (calcium fluorescence, CHO cells expressing hOX2R)
Type: cell-based
Settings: test compound 3 μM; CHO cells expressing human OX2 receptor; DMSO = 0%, orexin A (human) = 100%
Source text: To obtain a cell clone stably expressing human orexin type 2 receptor, human orexin type 2 receptor cDNA was inserted into pcDNA3.1(+) plasmid vector (Invitrogen), and a plasmid DNA for expression of human orexin type 2 receptor (pcDNA3.1(+)/hOX2R) was cloned. The plasmid DNA was introduced into CHO-dhfr cell by an electroporation method, and human orexin type 2 receptor expressing clone cells were obtained by limiting dilution method by using G418 drug resistance as a selection marker.
CHO cells forcibly expressing human OX2 receptor were seeded in each well of 384 well black transparent bottom plate (BD Falcon) at 7,500 cells/well, and cultured for one day in a 5% CO2 incubator at 37° C. After removal of the medium in the cell plate, assay buffer A containing a calcium indicator (HBSS (Thermo Fisher Scientific), 20 mM HEPES (Thermo Fisher Scientific), 0.1% BSA (Wako Pure Chemical Industries, Ltd. or Sigma-Aldrich), 2.5 μg/mL Fluo-4 AM (DOJINDO Chemical), 0.08% Pluronic F127 (DOJINDO Chemical), 1.25 mM probenecid (DOJINDO Chemical)) was added at 30 μL/well. The plate was stood for 30 min in a 5% CO2 incubator at 37° C., and further stood at room temperature for 30 min. A test compound prepared by diluting with assay buffer B (HBSS, 20 mM HEPES, 0.1% BSA) was added at 10 μL/well, and the fluorescence value was measured by FDSSμCELL (Hamamatsu Photonics K.K.) every one sec for 1 min, and thereafter every two sec for 1 min 40 sec. The activity (%) of the test compound was calculated assuming that variation in the fluorescence value when DMSO was added instead of the test compound was 0%, and variation in the fluorescence value when orexin A (human) (PEPTIDE INSTITUTE, INC.) was added at the final concentration of 10 nM was 100%.

| OX2R agonist activity (3 μM, %) [%] | Structure (SMILES) |
| --- | --- |
| 96 | CCOC(=O)N1CC[C@H](NS(C)(=O)=O)[C@@H]1Cc1cccc(-c2ccccc2)c1 [Example 101, ethyl (2S,3S)-2-(biphenyl-3-ylmethyl)-3-((methylsulfonyl)amino)pyrrolidine-1-carboxylate] |
| 75 | CCOC(=O)N1CCC[C@H](NS(C)(=O)=O)[C@@H]1Cc1cccc(-c2ccccc2)n1 (relative stereo) [Example 38, ethyl cis-3-((methylsulfonyl)amino)-2-((6-phenylpyridin-2-yl)methyl)piperidine-1-carboxylate] |
| 67 | COC(=O)N1CCC[C@H](NS(C)(=O)=O)[C@@H]1Cc1ccc(F)c(-c2ccccc2)c1 (relative stereo) [Example 41, methyl cis-2-((6-fluorobiphenyl-3-yl)methyl)-3-((methylsulfonyl)amino)piperidine-1-carboxylate] |
| 107 | CCS(=O)(=O)N[C@H]1CCN(C(=O)N(C)C)[C@H]1Cc1cccc(-c2cc(F)cc(F)c2)c1F [Example 399, (2S,3S)-3-((ethylsulfonyl)amino)-N,N-dimethyl-2-((2,3′,5′-trifluorobiphenyl-3-yl)methyl)pyrrolidine-1-carboxamide] |
| 107 | CS(=O)(=O)N[C@H]1CCN(C(=O)C2(F)CCC2)[C@H]1Cc1cccc(-c2cccc(F)c2)c1 [Example 266, N-((2S,3S)-2-((3′-fluorobiphenyl-3-yl)methyl)-1-((1-fluorocyclobutyl)carbonyl)pyrrolidin-3-yl)methanesulfonamide] |
| 101 | CS(=O)(=O)N[C@H]1CCN(C(=O)N2CCC2)[C@H]1Cc1cccc(-c2cccc(F)c2)n1 (relative stereo) [Example 333, N-(cis-1-(azetidin-1-ylcarbonyl)-2-((6-(3-fluorophenyl)pyridin-2-yl)methyl)pyrrolidin-3-yl)methanesulfonamide] |
| 35 | CC(C)OC(=O)N1CCC[C@H](NS(C)(=O)=O)[C@@H]1Cc1cccc2c1oc1ccccc12 (relative stereo) [Example 78, isopropyl cis-2-(dibenzo[b,d]furan-4-ylmethyl)-3-((methylsulfonyl)amino)piperidine-1-carboxylate] |
| 99 | CS(=O)(=O)N[C@H]1CCN(C(=O)C2CCC2)[C@H]1Cc1cccc(-c2cccc(F)c2)c1F [Example 350, N-((2S,3S)-1-(cyclobutylcarbonyl)-2-((2,3′-difluorobiphenyl-3-yl)methyl)pyrrolidin-3-yl)methanesulfonamide] |
| 95 | CS(=O)(=O)N[C@H]1CCN(C(=O)C2CCC2)[C@H]1Cc1ccc(F)c(-c2ccccc2)c1 (relative stereo) [Example 303, N-(cis-1-(cyclobutylcarbonyl)-2-((6-fluorobiphenyl-3-yl)methyl)pyrrolidin-3-yl)methanesulfonamide] |
| 103 | COCS(=O)(=O)N[C@H]1CCN(C(=O)C2CCC2)[C@H]1Cc1cccc(-c2cccc(F)c2)c1 [Example 312, N-((2S,3S)-1-(cyclobutylcarbonyl)-2-((3′-fluorobiphenyl-3-yl)methyl)pyrrolidin-3-yl)-1-methoxymethanesulfonamide] |
| 111 | O=C(C1CCC1)N1CC[C@H](NS(=O)(=O)CF)[C@@H]1Cc1csc(-c2ccccc2)n1 (relative stereo) [Example 269, N-(cis-1-(cyclobutylcarbonyl)-2-((2-phenyl-1,3-thiazol-4-yl)methyl)pyrrolidin-3-yl)-1-fluoromethanesulfonamide] |
| 96 | CC(C)OC(=O)N1CCC[C@H](NS(C)(=O)=O)[C@@H]1Cc1csc(-c2ccccc2)n1 (relative stereo) [Example 89, isopropyl cis-3-((methylsulfonyl)amino)-2-((2-phenyl-1,3-thiazol-4-yl)methyl)piperidine-1-carboxylate] |
| 112 | O=C(N1CCC1)N1CC[C@H](NS(=O)(=O)C2CC2)[C@@H]1Cc1cccc(-c2cccc(F)c2)c1 [Example 462, N-{(2S,3S)-1-(azetidine-1-carbonyl)-2-[(3′-fluoro[1,1′-biphenyl]-3-yl)methyl]pyrrolidin-3-yl}cyclopropanesulfonamide] |
| 60 | CC(=O)N1CCC[C@H](NS(C)(=O)=O)[C@@H]1Cc1cccc(-c2ccccc2)c1 (relative stereo) [Example 22, N-(cis-1-acetyl-2-(biphenyl-3-ylmethyl)piperidin-3-yl)methanesulfonamide] |
| 26 | COC(=O)N1CCC[C@H](NS(C)(=O)=O)[C@@H]1Cc1cccc(C2CCC2)c1 (relative stereo) [Example 60, methyl cis-2-(3-cyclobutylbenzyl)-3-((methylsulfonyl)amino)piperidine-1-carboxylate] |
| 103 | CS(=O)(=O)N[C@H]1CCN(C(=O)C2CCC2)[C@H]1Cc1csc(-c2cccc(F)c2)n1 [Example 320, N-((2S,3S)-1-(cyclobutylcarbonyl)-2-((2-(3-fluorophenyl)-1,3-thiazol-4-yl)methyl)pyrrolidin-3-yl)methanesulfonamide] |
| 105 | O=C(N1CCC1)N1CC[C@H](NS(=O)(=O)C2CC2)[C@@H]1Cc1cccc(-c2ccccc2)c1 [Example 463, N-{(2S,3S)-1-(azetidine-1-carbonyl)-2-[([1,1′-biphenyl]-3-yl)methyl]pyrrolidin-3-yl}cyclopropanesulfonamide] |
| 99 | CC(C)(C)C(=O)N1CC[C@H](NS(C)(=O)=O)[C@@H]1Cc1cccc(-c2cccc(F)c2)c1F [Example 349, N-((2S,3S)-2-((2,3′-difluorobiphenyl-3-yl)methyl)-1-(2,2-dimethylpropanoyl)pyrrolidin-3-yl)methanesulfonamide] |
| 82 | CC(C)OC(=O)N1CCC[C@H](NS(C)(=O)=O)[C@@H]1Cn1ccc(-c2ccccc2)n1 (relative stereo) [Example 122, isopropyl cis-3-((methylsulfonyl)amino)-2-((3-phenyl-1H-pyrazol-1-yl)methyl)piperidine-1-carboxylate] |
| 103 | Cc1cccc(-c2cccc(C[C@H]3[C@@H](NS(C)(=O)=O)CCN3C(=O)C3CCC3)c2)c1 [Example 311, N-((2S,3S)-1-(cyclobutylcarbonyl)-2-((3′-methylbiphenyl-3-yl)methyl)pyrrolidin-3-yl)methanesulfonamide] |
| 95 | O=C(C1CCC1)N1CC[C@H](NS(=O)(=O)C2CC2)[C@@H]1Cc1csc(-c2ccccc2)n1 (relative stereo) [Example 259, N-(cis-1-(cyclobutylcarbonyl)-2-((2-phenyl-1,3-thiazol-4-yl)methyl)pyrrolidin-3-yl)cyclopropanesulfonamide] |
| 100 | CN(C)C(=O)N1CC[C@H](NS(C)(=O)=O)[C@@H]1Cc1cccc(-c2cc(F)cc(F)c2)c1 [Example 366, (2S,3S)-2-((3′,5′-difluorobiphenyl-3-yl)methyl)-N,N-dimethyl-3-((methylsulfonyl)amino)pyrrolidine-1-carboxamide] |
| 108 | O=C(N1CCC1)N1CC[C@H](NS(=O)(=O)CF)[C@@H]1Cc1cccc(-c2ccccc2)c1F [Example 466, N-{(2S,3S)-1-(azetidine-1-carbonyl)-2-[(2-fluoro[1,1′-biphenyl]-3-yl)methyl]pyrrolidin-3-yl}-1-fluoromethanesulfonamide] |
| 104 | CC(C)OC(=O)N1CC[C@H](NS(C)(=O)=O)[C@@H]1Cc1cccc(-c2ccccc2)c1 (relative stereo) [Example 74, isopropyl cis-2-(biphenyl-3-ylmethyl)-3-((methylsulfonyl)amino)pyrrolidine-1-carboxylate] |

| Structure (SMILES) | OX2R agonist activity (3 μM, %) [%] |
| --- | --- |
| CCNC(=O)N1CCC[C@H](NS(C)(=O)=O)[C@@H]1Cc1cccc(O[Si](C(C)C)(C(C)C)C(C)C)c1 (relative stereo) [Example 17, cis-N-ethyl-3-((methylsulfonyl)amino)-2-(3-((triisopropylsilyl)oxy)benzyl)piperidine-1-carboxamide] | 29 |
